Source: US20210330611A1, “THERAPY FOR NEUROLOGICAL DISEASES/DISORDERS” (priority 2020, published 2021)
Structures can show the parent of a compound that is named as a salt. Where two headings read alike, the source gives them in different places.

How the values were obtained:
[1] = test system: fibrin-induced microglia activation; test: Image-based assay of fibrin-induced microglia activation (HTS and dose response); assay type: cell-based, rat; conditions: for inhibition at 10 µM: Rattus norvegicus, Microglia, read-out: Fibrin % inhibition
[2] = test system: LPS-induced microglia activation; test: Image-based assay of LPS-induced microglia activation (HTS and dose response); assay type: cell-based, rat; conditions: for inhibition at 10 µM: Rattus norvegicus, Microglia, read-out: LPS % inhibition
[3] = test system: fibrin- and LPS-induced microglia activation; test: cells; assay type: cell-based, rat
[4] = test system: primary rat microglia; test: Cell toxicity (dead cells, size <150 μm2) in LPS assay
[5] = test system: primary rat microglia; test: Cell toxicity (dead cells, size <150 μm2) in coated fibrin (cFib) assay;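 further: share of dead cells sized under 150 µm2 at 10 µM in fibrin-stimulated microglia HTS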
[6] = primary microglia HTS, 10 μM, fibrin-stimulated, cell size >800 μm^2 as marker of activation
[7] = primary microglia HTS, 10 μM, LPS-stimulated, cell size >800 μm^2 as marker of activation
[8] = HTS of 1907 compounds, quadrant by fibrin and LPS inhibition
[9] = primary microglia HTS, 10 μM, LPS assay, cell size <150 μm^2 as marker of toxicity
[10] = primary microglia HTS, 10 μM, fibrin assay, cell size <150 μm^2 as marker of toxicity
[11] = primary microglia HTS, fibrin stimulation, activation = cell size >800 μm2
[12] = quadrant by fibrin and LPS inhibition in HTS of 1907 compounds
[13] = primary microglia HTS, LPS stimulation, toxicity = cell size <150 μm2
[14] = primary microglia HTS, fibrin stimulation, toxicity = cell size <150 μm2
[15] = primary HTS, 10 μM, fibrin-stimulated primary microglia
[16] = primary HTS, 10 μM, LPS-stimulated primary microglia
[17] = primary HTS, 10 μM, LPS assay, dead cells size <150 μm2
[18] = primary HTS, 10 μM, fibrin assay, dead cells size <150 μm2
[19] = primary microglia HTS, fibrin stimulation, increased cell size (>800 μm^2) as marker of activation
[20] = 48 h, primary microglia HTS, LPS stimulation, increased cell size (>800 μm^2) as marker of activation
[21] = primary microglia HTS, LPS stimulation, decreased size (<150 μm^2) as marker of toxicity
[22] = primary microglia HTS, fibrin stimulation, decreased size (<150 μm^2) as marker of toxicity
[23] = 48 h, primary microglia HTS, LPS stimulation, activation = cell size >800 μm2

Viomycin Sulfate
Fibrin % inhibition [1, 6]: −7% | LPS % inhibition [2, 7]: 19% | Quadrant (FIG. 5b) [3, 8]: Q4 | LPS % cell toxicity [4, 9]: 0% | Fibrin % cell toxicity [5, 10]: 0%

Cc1onc(-c2ccccc2)c1-c1ccc(S(N)(=O)=O)cc1 [Valdecoxib]
inhibition at 10 µM [1, 6]: -39% | inhibition at 10 µM [2, 7]: -4% | Quadrant (FIG. 5b) [3, 8]: Q4 | LPS % cell toxicity [4, 9]: 0% | Fibrin % cell toxicity [5, 10]: 1%

CN1CCN(C(=O)OC2c3nccnc3C(=O)N2c2ccc(Cl)cn2)CC1 (stereo not drawn) [Zopiclone]
inhibition at 10 µM [1, 6]: 11% | inhibition at 10 µM [2, 7]: 5% | Quadrant (FIG. 5b) [3, 8]: Q4 | LPS % cell toxicity [4, 9]: 0% | Fibrin % cell toxicity [5, 10]: 1%

C[C@@H]1O[C@@H]1P(=O)(O)O [Fosphomycin]
Fibrin % inhibition [1, 11]: 4% | LPS % inhibition ([2]; primary microglia HTS, LPS stimulation, activation = cell size >800 μm2): 12% | Quadrant (FIG. 5b) [3, 12]: Q4 | LPS % cell toxicity [4, 13]: 0% | Fibrin % cell toxicity [5, 14]: 1%

O=C([O-])C(O)[C@H](O)[C@@H](O)[C@H](O)[C@H](O)CO.O=C([O-])C(O)[C@H](O)[C@@H](O)[C@H](O)[C@H](O)CO.[Ca+2] (stereo partly drawn) [Calcium Gluceptate]
Fibrin % inhibition [1, 15]: 8% | LPS % inhibition [2, 16]: 8% | Quadrant (FIG. 5b) ([3]; primary HTS, 10 μM): Q4 | LPS % cell toxicity [4, 17]: 0% | Fibrin % cell toxicity [5, 18]: 1%

CC(C)(C)C(=O)C(Oc1ccc(Cl)cc1)n1ccnc1 (stereo not drawn) [Climbazole]
inhibition at 10 µM [1, 15]: -10% | inhibition at 10 µM [2, 16]: 1% | Quadrant (FIG. 5b) ([3]; primary HTS, 10 μM): Q4 | LPS % cell toxicity [4, 17]: 0% | Fibrin % cell toxicity [5, 18]: 1%

CCOc1ccc2ccccc2c1C(=O)N[C@@H]1C(=O)N2[C@@H]1SC(C)(C)[C@@H]2C(=O)O [Nafcillin Sodium]
inhibition at 10 µM [1, 19]: -7% | inhibition at 10 µM [2, 20]: 15% | Quadrant (FIG. 5b) [3, 12]: Q4 | LPS % cell toxicity [4, 21]: 0% | Fibrin % cell toxicity [5, 22]: 0%

O=C(O)c1nn(Cc2ccc(Cl)cc2Cl)c2ccccc12 [Lonidamine]
inhibition at 10 µM [1, 11]: 7% | inhibition at 10 µM [2, 23]: 19% | Quadrant (FIG. 5b) [3, 12]: Q4 | LPS % cell toxicity [4, 13]: 0% | Fibrin % cell toxicity [5, 14]: 1%

Cc1ncc(CNC(=O)N(CCCl)N=O)c(N)n1 [Nimustine]
inhibition at 10 µM [1, 19]: -1% | inhibition at 10 µM [2, 20]: 10% | Quadrant (FIG. 5b) [3, 12]: Q4 | LPS % cell toxicity [4, 21]: 0% | Fibrin % cell toxicity [5, 22]: 1%

Nc1nc(N)nc(-c2cc(Cl)ccc2Cl)n1 [Irsogladine Maleate]
inhibition at 10 µM [1, 11]: -27% | inhibition at 10 µM [2, 23]: 14% | Quadrant (FIG. 5b) [3, 12]: Q4 | LPS % cell toxicity [4, 13]: 0% | Fibrin % cell toxicity [5, 14]: 1%

CC(C)[N+](C)(CCC(C(N)=O)(c1ccccc1)c1ccccc1)C(C)C [Isopropamide]
inhibition at 10 µM [1, 11]: 19% | inhibition at 10 µM [2, 23]: 24% | Quadrant (FIG. 5b) [3, 12]: Q4 | LPS % cell toxicity [4, 13]: 0% | Fibrin % cell toxicity [5, 14]: 0%

CC(C)CC(N)=O [Isovaleramide]
inhibition at 10 µM [1, 11]: -10% | inhibition at 10 µM [2, 23]: 1% | Quadrant (FIG. 5b) [3, 12]: Q4 | LPS % cell toxicity [4, 13]: 0% | Fibrin % cell toxicity [5, 14]: 1%

COc1ccnc(C[S+]([O-])c2nc3cc(OC(F)F)ccc3[n-]2)c1OC.[Na+] (stereo not drawn) [Pantoprazole, Pantoprazole Sodium Salt]
Fibrin % inhibition [1, 19]: −8% | LPS % inhibition ([2]; primary microglia HTS, LPS stimulation, increased cell size (>800 μm^2) as marker of activation): −1% | Quadrant (FIG. 5b) [3, 12]: Q4 | LPS % cell toxicity [4, 21]: 0% | Fibrin % cell toxicity [5, 22]: 0%

CC(C)C[C@H](NC(=O)[C@@H](Cc1c[nH]c2ccccc12)NC(=O)[C@H](Cc1ccc(O)cc1)NC(=O)[C@H](CO)NC(=O)[C@H](Cc1c[nH]c2ccccc12)NC(=O)[C@H](Cc1c[nH]cn1)NC(=O)[C@@H]1CCC(=O)N1)C(=O)N[C@@H](CCCNC(=N)N)C(=O)N1CCC[C@H]1C(=O)NCC(N)=O [Triptorelin]
Fibrin % inhibition [1, 6]: −15% | LPS % inhibition [2, 7]: 4% | Quadrant (FIG. 5b) [3, 8]: Q4 | LPS % cell toxicity [4, 9]: 0% | Fibrin % cell toxicity [5, 10]: 1%

COc1c(N2CCNC(C)C2)c(F)cc2c(=O)c(C(=O)O)cn(C3CC3)c12 (stereo not drawn) [Gatifloxacin]
inhibition at 10 µM [1, 11]: -19% | inhibition at 10 µM [2, 23]: 19% | Quadrant (FIG. 5b) [3, 12]: Q4 | LPS % cell toxicity [4, 13]: 0% | Fibrin % cell toxicity [5, 14]: 1%

CO[C@H]1C[C@H](O[C@H]2[C@H](C)[C@@H](O[C@@H]3O[C@H](C)C[C@H](N(C)C)[C@H]3O)[C@@H](C)C[C@@]3(CO3)C(=O)[C@H](C)[C@@H](O)[C@@H](C)[C@@H](C)OC(=O)[C@@H]2C)O[C@@H](C)[C@@H]1O [Oleandomycin Phosphate]
inhibition at 10 µM [1, 19]: -9% | inhibition at 10 µM [2, 20]: 16% | Quadrant (FIG. 5b) [3, 12]: Q4 | LPS % cell toxicity [4, 21]: 0% | Fibrin % cell toxicity [5, 22]: 1%

O=C(c1cccnc1)N1CCOCC1 [Nicopholine]
inhibition at 10 µM [1, 19]: 26% | inhibition at 10 µM [2, 20]: 21% | Quadrant (FIG. 5b) [3, 12]: Q4 | LPS % cell toxicity [4, 21]: 0% | Fibrin % cell toxicity [5, 22]: 0%

Cc1cc(O)cc(C)c1Cl [Chloroxylenol]
inhibition at 10 µM [1, 15]: -15% | inhibition at 10 µM [2, 16]: 7% | Quadrant (FIG. 5b) ([3]; primary HTS, 10 μM): Q4 | LPS % cell toxicity [4, 17]: 0% | Fibrin % cell toxicity [5, 18]: 1%

CCCCCN(CCCCC)C(=O)C(CCC(=O)O)NC(=O)c1ccc(Cl)c(Cl)c1 (stereo not drawn) [Lorglumide Sodium]
inhibition at 10 µM [1, 11]: -29% | inhibition at 10 µM [2, 23]: 13% | Quadrant (FIG. 5b) [3, 12]: Q4 | LPS % cell toxicity [4, 13]: 1% | Fibrin % cell toxicity [5, 14]: 1%

c1ccc2c(CC3=NCCN3)cccc2c1 [Naphazoline]
inhibition at 10 µM [1, 19]: -1% | inhibition at 10 µM [2, 20]: 13% | Quadrant (FIG. 5b) [3, 12]: Q4 | LPS % cell toxicity [4, 21]: 1% | Fibrin % cell toxicity [5, 22]: 1%

S=C=Nc1ccc(N=C=S)cc1 [Bitoscanate]
inhibition at 10 µM [1, 15]: -9% | inhibition at 10 µM [2, 16]: 3% | Quadrant (FIG. 5b) ([3]; primary HTS, 10 μM): Q4 | LPS % cell toxicity [4, 17]: 1% | Fibrin % cell toxicity [5, 18]: 1%

C[C@]12CCC(=O)C=C1C=C[C@@H]1[C@@H]2CC[C@@]2(C)[C@H]1CC[C@@]21CCC(=O)O1 [Canrenone]
inhibition at 10 µM [1, 15]: -10% | inhibition at 10 µM [2, 16]: 19% | Quadrant (FIG. 5b) ([3]; primary HTS, 10 μM): Q4 | LPS % cell toxicity [4, 17]: 0% | Fibrin % cell toxicity [5, 18]: 1%

CCN(CC)CCOC(=O)C(Cc1cccc2ccccc12)CC1CCCO1 (stereo not drawn) [Nafronyl Oxalate]
inhibition at 10 µM [1, 19]: 15% | inhibition at 10 µM [2, 20]: 15% | Quadrant (FIG. 5b) [3, 12]: Q4 | LPS % cell toxicity [4, 21]: 0% | Fibrin % cell toxicity [5, 22]: 1%

O=C(CCNNC(=O)c1ccncc1)NCc1ccccc1 [Nialamide]
inhibition at 10 µM [1, 19]: -6% | inhibition at 10 µM [2, 20]: 11% | Quadrant (FIG. 5b) [3, 12]: Q4 | LPS % cell toxicity [4, 21]: 0% | Fibrin % cell toxicity [5, 22]: 1%
